# Results from patent US20110165601A1, “ASSAY SYSTEM” (THE UNIVERSITY COURT OF THE UNIVERSITY GLASGOW, priority 2006, published 2011).
# How the values were obtained:
# [1] = molecular target: T1, ryanodine receptor (Oryctolagus cuniculus, UniProt P30957); assay: SR Ca2+ release assay (Ca2+ leak from permeabilised cell aggregates); format: cell-based, rabbit; conditions: after 40 mM caffeine, FIG. 2
# T1 construct: The atria were removed and discarded whereas the right and left ventricle was kept for experiments; endogenous in cells; host or cells: isolated rabbit ventricular cardiomyocytes, beta-escin permeabilised, frozen and thawed
# T1 sequence (P30957 whole entry): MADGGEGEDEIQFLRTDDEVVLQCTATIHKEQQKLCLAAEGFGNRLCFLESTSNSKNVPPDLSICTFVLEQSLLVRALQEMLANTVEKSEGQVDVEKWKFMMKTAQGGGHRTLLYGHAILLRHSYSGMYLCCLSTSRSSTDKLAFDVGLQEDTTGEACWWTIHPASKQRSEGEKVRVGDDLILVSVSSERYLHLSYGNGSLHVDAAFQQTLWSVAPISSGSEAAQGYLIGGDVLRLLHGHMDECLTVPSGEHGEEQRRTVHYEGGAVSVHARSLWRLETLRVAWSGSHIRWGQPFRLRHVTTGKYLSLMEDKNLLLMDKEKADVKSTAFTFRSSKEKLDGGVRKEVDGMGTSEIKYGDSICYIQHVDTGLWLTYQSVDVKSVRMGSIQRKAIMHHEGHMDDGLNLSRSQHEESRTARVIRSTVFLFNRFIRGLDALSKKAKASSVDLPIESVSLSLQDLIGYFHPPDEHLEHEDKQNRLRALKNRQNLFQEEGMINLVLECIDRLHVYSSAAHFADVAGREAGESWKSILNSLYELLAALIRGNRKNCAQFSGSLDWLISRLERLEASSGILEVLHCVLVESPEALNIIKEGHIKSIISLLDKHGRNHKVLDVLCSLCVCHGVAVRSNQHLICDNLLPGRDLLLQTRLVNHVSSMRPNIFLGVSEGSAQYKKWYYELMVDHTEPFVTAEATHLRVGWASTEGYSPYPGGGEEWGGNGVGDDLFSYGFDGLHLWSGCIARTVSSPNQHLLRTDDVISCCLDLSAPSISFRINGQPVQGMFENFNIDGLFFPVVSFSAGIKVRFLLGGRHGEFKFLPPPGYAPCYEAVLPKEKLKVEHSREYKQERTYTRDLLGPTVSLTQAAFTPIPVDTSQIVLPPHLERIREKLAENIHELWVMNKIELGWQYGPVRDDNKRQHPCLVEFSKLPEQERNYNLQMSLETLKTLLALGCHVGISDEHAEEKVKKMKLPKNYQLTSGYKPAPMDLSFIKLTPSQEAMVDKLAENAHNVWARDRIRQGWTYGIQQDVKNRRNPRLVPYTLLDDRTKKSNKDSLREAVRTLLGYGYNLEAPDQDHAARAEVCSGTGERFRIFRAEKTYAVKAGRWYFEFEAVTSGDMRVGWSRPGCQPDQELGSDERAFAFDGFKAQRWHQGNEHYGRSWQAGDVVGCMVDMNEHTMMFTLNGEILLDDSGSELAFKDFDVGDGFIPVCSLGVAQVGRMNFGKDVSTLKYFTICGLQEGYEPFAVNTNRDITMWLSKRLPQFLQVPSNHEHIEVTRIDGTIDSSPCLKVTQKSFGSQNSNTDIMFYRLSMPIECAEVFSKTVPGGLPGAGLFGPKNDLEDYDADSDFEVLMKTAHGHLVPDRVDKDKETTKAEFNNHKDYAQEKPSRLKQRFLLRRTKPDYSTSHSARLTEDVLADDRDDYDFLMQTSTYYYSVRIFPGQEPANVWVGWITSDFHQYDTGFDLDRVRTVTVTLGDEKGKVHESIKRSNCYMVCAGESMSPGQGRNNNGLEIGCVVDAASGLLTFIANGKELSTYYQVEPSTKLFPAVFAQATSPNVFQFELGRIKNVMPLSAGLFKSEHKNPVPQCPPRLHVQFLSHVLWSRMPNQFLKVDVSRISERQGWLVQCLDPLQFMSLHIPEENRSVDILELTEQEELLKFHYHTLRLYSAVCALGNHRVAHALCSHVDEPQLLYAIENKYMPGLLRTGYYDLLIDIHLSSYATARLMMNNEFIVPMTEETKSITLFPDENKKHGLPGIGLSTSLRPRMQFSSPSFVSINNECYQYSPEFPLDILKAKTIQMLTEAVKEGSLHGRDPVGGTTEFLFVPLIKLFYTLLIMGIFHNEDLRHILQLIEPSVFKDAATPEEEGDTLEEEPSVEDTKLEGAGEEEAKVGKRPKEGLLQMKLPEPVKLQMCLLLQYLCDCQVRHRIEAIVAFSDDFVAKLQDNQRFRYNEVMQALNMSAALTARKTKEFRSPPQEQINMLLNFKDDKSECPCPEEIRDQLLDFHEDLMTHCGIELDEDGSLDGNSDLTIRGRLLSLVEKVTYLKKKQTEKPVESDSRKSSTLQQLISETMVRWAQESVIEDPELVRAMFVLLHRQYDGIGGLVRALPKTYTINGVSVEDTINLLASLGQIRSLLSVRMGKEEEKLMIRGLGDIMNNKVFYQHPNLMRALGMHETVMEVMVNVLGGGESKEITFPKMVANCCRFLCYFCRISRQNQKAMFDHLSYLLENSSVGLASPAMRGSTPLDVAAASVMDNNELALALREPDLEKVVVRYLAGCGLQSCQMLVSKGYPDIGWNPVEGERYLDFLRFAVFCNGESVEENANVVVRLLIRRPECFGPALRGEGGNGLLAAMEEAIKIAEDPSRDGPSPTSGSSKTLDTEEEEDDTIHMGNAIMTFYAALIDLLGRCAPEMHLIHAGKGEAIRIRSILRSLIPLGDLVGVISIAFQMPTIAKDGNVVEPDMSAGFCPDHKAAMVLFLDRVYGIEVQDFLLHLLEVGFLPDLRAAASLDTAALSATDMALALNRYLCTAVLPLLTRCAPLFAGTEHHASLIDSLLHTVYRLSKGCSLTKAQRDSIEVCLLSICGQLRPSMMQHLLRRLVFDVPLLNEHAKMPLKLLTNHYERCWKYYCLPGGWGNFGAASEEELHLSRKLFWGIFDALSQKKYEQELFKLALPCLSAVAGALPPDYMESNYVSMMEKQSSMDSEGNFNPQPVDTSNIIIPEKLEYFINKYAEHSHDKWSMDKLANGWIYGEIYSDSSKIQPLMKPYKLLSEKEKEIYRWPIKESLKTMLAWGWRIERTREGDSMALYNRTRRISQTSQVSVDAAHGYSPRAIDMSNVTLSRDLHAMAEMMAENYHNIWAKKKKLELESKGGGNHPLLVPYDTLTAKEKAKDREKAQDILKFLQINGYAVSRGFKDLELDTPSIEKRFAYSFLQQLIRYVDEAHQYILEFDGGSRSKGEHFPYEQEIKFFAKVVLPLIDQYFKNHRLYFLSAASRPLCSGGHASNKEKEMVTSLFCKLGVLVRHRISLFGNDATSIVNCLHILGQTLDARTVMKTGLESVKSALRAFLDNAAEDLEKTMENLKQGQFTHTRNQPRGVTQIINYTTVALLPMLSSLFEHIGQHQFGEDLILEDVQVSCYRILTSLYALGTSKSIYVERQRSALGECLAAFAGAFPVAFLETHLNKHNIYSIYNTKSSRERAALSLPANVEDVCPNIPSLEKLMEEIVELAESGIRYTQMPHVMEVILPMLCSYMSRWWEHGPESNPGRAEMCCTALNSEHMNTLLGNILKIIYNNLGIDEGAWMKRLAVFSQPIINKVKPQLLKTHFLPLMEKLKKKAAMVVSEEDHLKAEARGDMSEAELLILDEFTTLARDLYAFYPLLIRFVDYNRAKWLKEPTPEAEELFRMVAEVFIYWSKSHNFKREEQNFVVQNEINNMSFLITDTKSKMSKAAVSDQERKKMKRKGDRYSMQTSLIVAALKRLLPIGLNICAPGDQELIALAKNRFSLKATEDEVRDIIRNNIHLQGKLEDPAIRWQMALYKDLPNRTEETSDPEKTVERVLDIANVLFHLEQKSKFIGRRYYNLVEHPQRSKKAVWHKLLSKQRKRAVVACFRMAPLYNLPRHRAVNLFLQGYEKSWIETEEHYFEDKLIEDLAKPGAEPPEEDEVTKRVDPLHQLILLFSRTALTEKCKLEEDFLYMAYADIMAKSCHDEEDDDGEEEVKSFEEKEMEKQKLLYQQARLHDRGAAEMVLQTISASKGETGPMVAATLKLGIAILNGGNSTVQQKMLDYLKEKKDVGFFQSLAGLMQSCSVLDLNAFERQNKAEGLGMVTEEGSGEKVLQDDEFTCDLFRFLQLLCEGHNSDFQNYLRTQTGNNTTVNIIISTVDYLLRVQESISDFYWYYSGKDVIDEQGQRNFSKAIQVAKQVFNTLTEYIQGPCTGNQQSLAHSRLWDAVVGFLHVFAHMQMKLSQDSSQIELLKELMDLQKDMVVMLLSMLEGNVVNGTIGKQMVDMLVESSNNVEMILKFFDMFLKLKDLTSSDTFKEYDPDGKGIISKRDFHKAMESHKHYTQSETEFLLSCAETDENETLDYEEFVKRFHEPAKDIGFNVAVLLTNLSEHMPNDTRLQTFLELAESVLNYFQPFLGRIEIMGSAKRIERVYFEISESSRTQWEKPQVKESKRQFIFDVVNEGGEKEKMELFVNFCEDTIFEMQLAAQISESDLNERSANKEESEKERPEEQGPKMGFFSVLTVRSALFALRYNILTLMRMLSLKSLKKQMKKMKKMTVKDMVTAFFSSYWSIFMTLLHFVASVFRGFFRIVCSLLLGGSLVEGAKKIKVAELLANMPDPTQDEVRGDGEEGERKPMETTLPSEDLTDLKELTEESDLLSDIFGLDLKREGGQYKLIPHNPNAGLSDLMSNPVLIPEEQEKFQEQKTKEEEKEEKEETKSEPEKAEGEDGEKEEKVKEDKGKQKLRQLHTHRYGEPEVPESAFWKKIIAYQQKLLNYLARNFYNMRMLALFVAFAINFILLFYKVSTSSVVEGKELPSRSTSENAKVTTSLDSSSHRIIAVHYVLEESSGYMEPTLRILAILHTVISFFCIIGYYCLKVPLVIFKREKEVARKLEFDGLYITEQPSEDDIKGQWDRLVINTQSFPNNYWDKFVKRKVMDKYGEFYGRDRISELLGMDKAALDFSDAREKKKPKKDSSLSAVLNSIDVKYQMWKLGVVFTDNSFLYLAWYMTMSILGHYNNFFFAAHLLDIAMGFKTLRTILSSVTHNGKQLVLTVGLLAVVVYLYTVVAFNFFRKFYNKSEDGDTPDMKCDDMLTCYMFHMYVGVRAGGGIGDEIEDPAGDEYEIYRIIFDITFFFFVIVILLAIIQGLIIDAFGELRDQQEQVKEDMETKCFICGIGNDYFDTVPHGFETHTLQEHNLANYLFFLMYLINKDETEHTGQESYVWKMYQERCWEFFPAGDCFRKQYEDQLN
# Method: Ca^2+ uptake is stimulated by addition of an aliquot of Ca^2+. SERCA inhibition is induced by thapsigargin (5 uM).
# The cell aggregate preparation is defrosted in 9× volumes of S2 with the addition of 2-3 aliquots of 100 μM CaCl2. The preparation is then aliquoted into the high format wells (96 or 384 well). […] The slow progressive increase in Ca^2+ concentration within the bath reflects Ca^2+ loss from the SR both via the ryanodine receptor and via independent leak pathways. […] As with the assay system above, two options for measurements are possible (i) follow the timecourse of the Ca^2+ release profile in detail by measuring every 1-2 s for 10 mins (ii) measuring the Ca^2+ concentration at a set time (e.g. 10 mins) after initiation of the reaction. Compounds that stimulate the SR Ca^2+ leak will cause the increase of Ca^2+ concentration to occur faster than control (vehicle). Conversely compounds that inhibit the SR Ca^2+ leak will slow the increase of Ca^2+ concentration.
# [2] = molecular target: T2, SR Ca2+ ATPase (SERCA) (Oryctolagus cuniculus, UniProt P20647); assay: SR uptake assay in permeabilised cell preparations; format: cell-based, rabbit; conditions: FIG. 1C
# T2 construct: The atria were removed and discarded whereas the right and left ventricle was kept for experiments; endogenous in cells; host or cells: isolated rabbit ventricular cardiomyocytes, beta-escin permeabilised, frozen and thawed
# Method: As indicated above the figure, Ca^2+ was added to increase the [Ca^2+] within the aggregate to ˜1.5 μM. No Ca^2+ uptake occurs due to the absence of Mg^2+ (and therefore MgATP). Addition of Me starts the reaction. The initial increase of [Ca^2+] is caused by displacement of Ca^2+ from ATP.
# Aliquots of cells are defrosted gradually with the addition of 9 volumes of S1 solution. This was followed by addition of CaCl2 to increase the free [Ca^2+] to ˜1.5 μM (˜100 μM total Ca^2+). The mixture can then be distributed into the 96 or high format arrays. Incubation of the preparation with the compound of interest can occur for 15-20 mins and the SR uptake reaction began by addition of 5.5 mM MgCl2 (with stirring). This provides the substrate (MgATP) to allow SR uptake of Ca^2+. There are two options for measurement: (i) follow the time course of the Ca^2+ uptake profile in detail by measuring every 1-2 s for up to 10 mins (ii) measuring the Ca^2+ concentration at a set time (e.g. 10 mins) after initiation of the reaction. […] These effects can be monitored in detail (option (i)—see FIG. 1 and description thereof for an example) or by simply measuring Fluo-3 fluorescence at one time point (option (ii)).
# [3] = test system: myocytes; assay: Trypan blue assay (access of dye into myocytes); format: cell-based, rabbit
# Excerpt: (§1) The following description illustrates two methods which were used to test permeabilisation of rabbit myocytes by a batch of beta-escin, and to compare two different commercial batches of saponin.
# (§2) The haemocytometer method of cell counting was used to count the number of non-permeable myocytes before and after application of the permeabilising agent (either saponin or β-Escin). Freshly dissociated cardiac muscle cells were obtained in a solution of low calcium. These were filtered and transferred into two 13.5 ml test tubes. Each was centrifuged for approximately 12 seconds at 5 g and the supernatant was discarded. Approximately 4.5 ml of EGTA solution was used to re-suspend the pellet in each tube. The contents of both were combined to form the stock suspension.
# Access of the vital dye Trypan blue (MW: 950 approx.) into myocytes was used to evaluate permeabilisation by Saponin (Calbiochem brand) or β-escin. Permeabilised myocytes were identified by positive staining (blue colour) of the cell contents. Cells with intact membranes excluded the dye and it was this population that was counted.
# For each run utilising the trypan blue assay, eight 13.5 ml test tubes were obtained. Each was labelled control 1, control 2, 0.1, 1, 10, 100, 1000 or 10000.
# The cell stock suspension was agitated to ensure uniform distribution of cells and exactly 1 ml was pipetted into each tube. These were then transferred to the fridge to prevent degradation of the cells. Each tube was put through the following protocol in turn. The required volume of permeabilising agent was added (see Table 2) and a stopclock was started.
# Once the incubation time had elapsed the tube was centrifuged for approximately 12 seconds at 5 g and the supernatant was withdrawn. The pellet was re-suspended in 0.5 mls of EGTA solution and 0.5 mls of 0.5% Trypan blue (BDH Laboratory Supplies, Poole, England) in 5 mM EGTA, which had been previously gently heated to ensure that the dye was dissolved. The tube was agitated and cell density determined by hamocytometer counting.
# The protocol was followed for all concentrations under investigation; for the two controls no permeabilising agent was added and thus no incubation step was required.
# (§3) Graphs were plotted and non-linear logistic curves were fitted using least squares technique by the Microcal™ Origin™ package (version 5.0, Microcal Software Inc.). ED50 values and their associated errors were also estimated using this software. Analysis of variance (ANOVA) using Tukey's post-test comparison was used to verify significance between ED50 values (GraphPad InStat™, GraphPad Software, V2.05a).
# [4] = test system: myocytes; assay: Ca2+-contraction assay (rod count by haemocytometer); format: cell-based, rabbit
# Excerpt: as §1, §2
# Physiologically, myofilaments are activated by a rapid increase in the cytosolic Ca^2+ concentration from 0.1 μM to approximately 2 μM which occurs mainly due to Ca^2+ release from the SR (Levick, 2000). The Ca^2+-contraction assay used in this investigation relies upon the fact that cells with permeabilised membranes allow free access of Ca^2+ to the cytosol when exposed to high extracellular Ca^2+ concentrations. This activates the myofilaments of the cell causing it to contract into a ball. Non-permeabilised myocytes retain their characteristic rod shape. The effects of permeabilising agents on the cell population were quantified by counting the proportion of rod-shaped cells.
# On each run utilising the Ca^2+-contraction assay, sixteen 13.5 ml test tubes were obtained. Eight of these were labelled “EGTA” whilst the remaining eight were labelled “CaEGTA”. Within both sets of eight, individual tubes were labelled control 1, control 2, 0.01, 0.1, 1, 10, 100 and 1000.
# The cell stock suspension was agitated to ensure uniform distribution of cells and exactly 1 ml was pipetted into each tube labelled “EGTA”. These tubes were then transferred to the fridge to prevent degradation of the cells.
# Each tube was put through the following protocol in turn. The required volume of permeabilising agent was added (see Table 2) and a stopclock was started. During the two minute incubation time, exactly 0.5 mls of the contents of the “EGTA” tube was withdrawn using a pipette and transferred to the corresponding “CaEGTA” tube.
# Once the incubation time had elapsed the tubes were centrifuged for approximately 12 seconds at 5 g and the supernatant was withdrawn. The “EGTA” pellet was re-suspended in 0.5 mls of EGTA solution and the “CaEGTA” pellet in 0.5 mls of CeEGTA solution. Both tubes were agitated and the cell density determined by haemocytometer. The protocol was followed for all concentrations under investigation; for the two controls no permeabilising agent was added and thus no incubation step was required.
# The effect of exposing myocytes to exceedingly high concentrations of permeabilising agent ([…]) was investigated for both β-Escin and saponin. The protocol followed was the same as the Ca^2+-contraction assay protocol (described above). 100 μl of the 100 mg/ml stock was added to the 1 ml suspension volume to achieve the required concentration (see Table 2). A control plus a low concentration of agent (1 μg/ml) were also studied to validate results.
# The concentrations investigated were 1, 10, 100 and 1000 μg/ml for each saponin plus two controls. The experimental protocol followed was the same as for the Ca^2+-contraction assay method above.
# as §3
# [5] = test system: cardiac myocytes; assay: Permeabilisation of a sample of cardiac myocytes; format: cell-based; conditions: at 1 mg/ml
compound,measurement,setting,value
N.N.N.N.N.N.N.N.N.N.N.N.N.N.[Cl-].[Cl-].[Cl-].[Cl-].[Cl-].[Cl-].[O-2].[O-2].[Ru+3].[Ru+3].[Ru+4] [ruthenium red],effect on caffeine-stimulated Ca2+ leak from SR,[1],blocked
C/C=C(/C)C(=O)O[C@H]1C(C)=C2[C@H]([C@@H]1OC(=O)CCCCCCC)[C@@](C)(OC(C)=O)C[C@H](OC(=O)CCC)[C@@]1(O)[C@H]2OC(=O)[C@@]1(C)O [thapsigargin],effect on SERCA,[2],inhibition
β-escin,concentration from which trypan blue began to enter the myocytes,[3],1 to 10 µg/mL
same,mean rod count excluding dye,[3]; at 0.1 μg/ml,approximately 90%
same,mean rod count excluding dye,[3]; at 1 μg/ml,approximately 110%
same,"decrease of mean rod count, of the control value",[3]; at 10 μg/ml,approximately 35%
same,proportion of control population permeable to trypan blue,[3]; at 100 μg/ml,Approximately 100%
same,proportion of control population permeable to trypan blue,[3]; at 1000 μg/ml,Approximately 100%
same,proportion of control population permeable to trypan blue,[3]; at 10000 μg/ml,Approximately 100%
same,minimum effective concentration,[3]; trypan blue assay,100 µg/mL
same,concentration at which permeabilisation (decrease in rod count in 5 mM Ca2+ EGTA) began,[4]; Ca2+-contraction assay,10 µg/mL
same,concentration range over which permeabilisation was produced,[4]; Ca2+-contraction assay,1 to 10000 µg/mL
same,minimum effective concentration,"[4]; Ca2+-contraction assay, 5 mM Ca2+ EGTA",100 µg/mL
same,proportion of cell population hyperpermeable / permeabilised,[4]; at 100 μg/ml,Approximately 100%
same,proportion of cell population hyperpermeable / permeabilised,[4]; at 1000 μg/ml,Approximately 100%
same,proportion of cell population hyperpermeable / permeabilised,[4]; at 10000 μg/ml,Approximately 100%
same,proportion of cardiac myocytes permeabilised,[5],about 10%
